Measurements published in PubChem BioAssay (NCI).
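Tested at 5 concentrations; 48 h exposure; 96-well plates; endpoints linearly interpolated, else capped at highest concentration. TGI: total growth inhibition.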

Legend:
Test in all cases: NCI-60 cell line screen, 48 h
M14 melanoma = test system: M14 melanoma
UACC-62 melanoma = test system: UACC-62 melanoma
SK-MEL-5 melanoma = test system: SK-MEL-5 melanoma
SR leukemia = test system: SR leukemia
U251 CNS = test system: U251 CNS
EKVX NSCLC = test system: EKVX NSCLC
OVCAR-3 ovarian = test system: OVCAR-3 ovarian
SNB-19 CNS = test system: SNB-19 CNS
NCI-H460 lung = test system: NCI-H460 lung
UO-31 renal = test system: UO-31 renal
HT29 colon = test system: HT29 colon
NCI-H23 lung = test system: NCI-H23 lung
DMS 273 small cell lung = test system: DMS 273 small cell lung
LXFL 529 NSCLC = test system: LXFL 529 NSCLC
786-0 renal = test system: 786-0 renal
CAKI-1 renal = test system: CAKI-1 renal
DLD-1 colon = test system: DLD-1 colon
NCI-H522 lung = test system: NCI-H522 lung
MOLT-4 leukemia = test system: MOLT-4 leukemia
RXF 393 renal = test system: RXF 393 renal
OVCAR-4 ovarian = test system: OVCAR-4 ovarian
SNB-75 CNS = test system: SNB-75 CNS
SK-MEL-28 melanoma = test system: SK-MEL-28 melanoma
SK-MEL-2 melanoma = test system: SK-MEL-2 melanoma
HOP-62 NSCLC = test system: HOP-62 NSCLC
A549 NSCLC = test system: A549 NSCLC
HCT-116 colon = test system: HCT-116 colon
K-562 leukemia = test system: K-562 leukemia
HOP-92 NSCLC = test system: HOP-92 NSCLC
A498 renal = test system: A498 renal
SF-295 CNS = test system: SF-295 CNS
XF 498 CNS = test system: XF 498 CNS
SW-620 colon = test system: SW-620 colon
KM20L2 colon = test system: KM20L2 colon
OVCAR-5 ovarian = test system: OVCAR-5 ovarian
SF-268 CNS = test system: SF-268 CNS
KM12 colon = test system: KM12 colon
HCT-15 colon = test system: HCT-15 colon
RXF-631 renal = test system: RXF-631 renal
RPMI-8226 leukemia = test system: RPMI-8226 leukemia
IGROV1 ovarian = test system: IGROV1 ovarian
NCI-H226 lung = test system: NCI-H226 lung
COLO 205 colon = test system: COLO 205 colon
MALME-3M melanoma = test system: MALME-3M melanoma
SF-539 CNS = test system: SF-539 CNS
SK-OV-3 ovarian = test system: SK-OV-3 ovarian
CCRF-CEM leukemia = test system: CCRF-CEM leukemia
SN12C renal = test system: SN12C renal
HL-60(TB) leukemia = test system: HL-60(TB) leukemia
HCC-2998 colon = test system: HCC-2998 colon
ACHN renal = test system: ACHN renal
M19-MEL melanoma = test system: M19-MEL melanoma
LOX IMVI melanoma = test system: LOX IMVI melanoma
UACC-257 melanoma = test system: UACC-257 melanoma
HOP-18 NSCLC = test system: HOP-18 NSCLC
TK-10 renal = test system: TK-10 renal
OVCAR-8 ovarian = test system: OVCAR-8 ovarian
DMS 114 small cell lung = test system: DMS 114 small cell lung
SNB-78 CNS = test system: SNB-78 CNS

O=C1CCCC[C@H]1[C@H]1CCC[C@@H]([C@H]2CCCCC2=O)C1=O
TGI (M14 melanoma): > 100 µM
TGI (UACC-62 melanoma): > 100 µM
TGI (SK-MEL-5 melanoma): > 100 µM
TGI (SR leukemia): > 100 µM
TGI (U251 CNS): > 100 µM
TGI (EKVX NSCLC): > 100 µM
TGI (OVCAR-3 ovarian): > 100 µM
TGI (SNB-19 CNS): > 100 µM
TGI (NCI-H460 lung): > 100 µM
TGI (UO-31 renal): > 100 µM
TGI (HT29 colon): > 100 µM
TGI (NCI-H23 lung): > 100 µM
TGI (DMS 273 small cell lung): > 100 µM
TGI (LXFL 529 NSCLC): > 100 µM
TGI (786-0 renal): > 100 µM
TGI (CAKI-1 renal): > 100 µM
TGI (DLD-1 colon): > 100 µM
TGI (NCI-H522 lung): > 100 µM
TGI (MOLT-4 leukemia): > 100 µM
TGI (RXF 393 renal): > 100 µM
TGI (OVCAR-4 ovarian): > 100 µM
TGI (SNB-75 CNS): > 100 µM
TGI (SK-MEL-28 melanoma): > 100 µM
TGI (SK-MEL-2 melanoma): > 100 µM
TGI (HOP-62 NSCLC): > 100 µM
TGI (A549 NSCLC): > 100 µM
TGI (HCT-116 colon): > 100 µM
TGI (K-562 leukemia): > 100 µM
TGI (HOP-92 NSCLC): > 100 µM
TGI (A498 renal): > 100 µM
TGI (SF-295 CNS): > 100 µM
TGI (XF 498 CNS): > 100 µM
TGI (SW-620 colon): > 100 µM
TGI (KM20L2 colon): > 100 µM
TGI (OVCAR-5 ovarian): > 100 µM
TGI (SF-268 CNS): > 100 µM
TGI (KM12 colon): > 100 µM
TGI (HCT-15 colon): > 100 µM
TGI (RXF-631 renal): > 100 µM
TGI (RPMI-8226 leukemia): > 100 µM
TGI (IGROV1 ovarian): > 100 µM
TGI (NCI-H226 lung): > 100 µM
TGI (COLO 205 colon): > 100 µM
TGI (MALME-3M melanoma): > 100 µM
TGI (SF-539 CNS): > 100 µM
TGI (SK-OV-3 ovarian): > 100 µM
TGI (CCRF-CEM leukemia): > 100 µM
TGI (SN12C renal): > 100 µM
TGI (HL-60(TB) leukemia): > 100 µM
TGI (HCC-2998 colon): > 100 µM
TGI (ACHN renal): > 100 µM
TGI (M19-MEL melanoma): > 100 µM
TGI (LOX IMVI melanoma): > 100 µM
TGI (UACC-257 melanoma): > 100 µM
TGI (HOP-18 NSCLC): > 100 µM
TGI (TK-10 renal): > 100 µM

CC(C)(C)c1cc(C(O)(C(F)(F)F)C(F)(F)F)c2c(c1)C(C(F)(F)F)(C(F)(F)F)OC(C(C)(C)C)N2 (configuration not stated)
TGI (M14 melanoma): 18.2 µM
TGI (UACC-62 melanoma): 14.4 µM
TGI (SK-MEL-5 melanoma): 3.6 µM
TGI (SR leukemia): 7.2 µM
TGI (U251 CNS): 10.8 µM
TGI (EKVX NSCLC): 17.1 µM
TGI (OVCAR-3 ovarian): 9.43 µM
TGI (SNB-19 CNS): 19.3 µM
TGI (NCI-H460 lung): 9.01 µM
TGI (UO-31 renal): 19.3 µM
TGI (HT29 colon): 9.37 µM
TGI (NCI-H23 lung): 8.6 µM
TGI (DMS 273 small cell lung): 11.1 µM
TGI (LXFL 529 NSCLC): 11.7 µM
TGI (786-0 renal): 11.9 µM
TGI (CAKI-1 renal): 8.45 µM
TGI (DLD-1 colon): 16.5 µM
TGI (NCI-H522 lung): 7.39 µM
TGI (MOLT-4 leukemia): 5.34 µM
TGI (RXF 393 renal): 6.51 µM
TGI (OVCAR-4 ovarian): 18 µM
TGI (SNB-75 CNS): 11.7 µM
TGI (SK-MEL-28 melanoma): 18.8 µM
TGI (SK-MEL-2 melanoma): 10.3 µM
TGI (A549 NSCLC): 13.6 µM
TGI (HCT-116 colon): 12.8 µM
TGI (OVCAR-8 ovarian): 13.1 µM
TGI (K-562 leukemia): 11 µM
TGI (SF-295 CNS): 8.04 µM
TGI (XF 498 CNS): 1.84 µM
TGI (SW-620 colon): 13.8 µM
TGI (DMS 114 small cell lung): 8.95 µM
TGI (KM20L2 colon): 11.5 µM
TGI (OVCAR-5 ovarian): 23.3 µM
TGI (KM12 colon): 14 µM
TGI (HCT-15 colon): 11.7 µM
TGI (RXF-631 renal): 19 µM
TGI (RPMI-8226 leukemia): 6.74 µM
TGI (IGROV1 ovarian): 18 µM
TGI (NCI-H226 lung): 10.2 µM
TGI (COLO 205 colon): 13.5 µM
TGI (SF-539 CNS): 6.68 µM
TGI (SK-OV-3 ovarian): 5.58 µM
TGI (SN12C renal): 14.6 µM
TGI (HCC-2998 colon): 15.7 µM
TGI (ACHN renal): 10.2 µM
TGI (M19-MEL melanoma): 12.9 µM
TGI (SNB-78 CNS): 14.2 µM
TGI (UACC-257 melanoma): 9.48 µM
TGI (HOP-18 NSCLC): 9.34 µM
TGI (TK-10 renal): 11.9 µM
